According to patent US11746100B2 (GLOBAL BLOOD THERAPEUTICS, INC., priority 2020, dated 2023):

Target: T1, human ferroportin (Homo sapiens, UniProt Q9NP59)
T1 construct: luciferase reporter (read with the Nano-Glo Luciferase Assay System); expressed in transfected cells; host or cells: CHO cells, stably transfected, expression induced with doxycycline
T1 sequence (Q9NP59 1-571): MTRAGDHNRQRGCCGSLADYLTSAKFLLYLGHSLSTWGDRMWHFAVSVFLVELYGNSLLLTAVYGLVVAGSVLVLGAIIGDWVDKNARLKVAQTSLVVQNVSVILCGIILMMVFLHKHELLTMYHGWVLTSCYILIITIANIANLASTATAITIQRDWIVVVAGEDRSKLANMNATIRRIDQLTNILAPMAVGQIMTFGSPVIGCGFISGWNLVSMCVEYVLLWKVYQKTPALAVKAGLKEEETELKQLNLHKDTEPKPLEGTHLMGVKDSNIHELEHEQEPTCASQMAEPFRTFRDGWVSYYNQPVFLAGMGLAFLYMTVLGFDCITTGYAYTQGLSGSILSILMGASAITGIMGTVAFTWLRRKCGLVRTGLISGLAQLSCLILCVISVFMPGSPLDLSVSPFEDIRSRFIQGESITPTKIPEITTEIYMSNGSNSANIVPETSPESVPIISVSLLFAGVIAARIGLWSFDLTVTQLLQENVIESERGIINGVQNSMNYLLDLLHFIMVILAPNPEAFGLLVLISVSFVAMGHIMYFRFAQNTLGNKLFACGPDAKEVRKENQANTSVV
Assay: Biological in-vitro ferroportin internalization assay (luciferase reporter)
Assay type: cell-based
Details: average pEC50; stably-transfected CHO cell line expressing human ferroportin tagged to a luciferase reporter; 6 h incubation with test compound
Method in brief: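 Stably transfected CHO cells expressing luciferase-tagged human ferroportin, plated 24 h with ferric ammonium citrate and induced with doxycycline for 24 h. Compounds incubated 6 h, then luciferase activity measured by Nano-Glo; average pEC50 reported.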

Row | pEC50 | SMILES
1 | 8.2 | C[C@H](O)COc1ccnc(-c2nc3c(c(N(C)CC(=O)NC(C)(C)C)n2)CCC3)c1 [Compound 370, N-tert-butyl-2-[(2-{4-[(2S)-2-hydroxypropoxy]pyridin-2-yl}-5H,6H,7H-cyclopenta[d]pyrimidin-4-yl)(methyl)amino]acetamide]
2 | 7.6 | CN(CC(=O)NC(C)(C)C)c1nc(-c2cc(-c3cnn(C)c3)ccn2)nc2c1CCC2 [Compound 352, N-tert-butyl-2-[methyl({2-[4-(1-methyl-1H-pyrazol-4-yl)pyridin-2-yl]-5H,6H,7H-cyclopenta[d]pyrimidin-4-yl})amino]acetamide]
3 | 7.9 | CN1CCC[C@H](Oc2ccnc(-c3nc4c(c(N(C)CC(=O)NC(C)(C)C)n3)CCC4)c2)C1 [Compound 490, N-tert-butyl-2-{methyl[2-(4-{[(3S)-1-methylpiperidin-3-yl]oxy}pyridin-2-yl)-5H,6H,7H-cyclopenta[d]pyrimidin-4-yl]amino}acetamide]
4 | 8 | CC(C)NC(=O)CN(C)c1nc(-c2cc(OCCN3CCOCC3)ccn2)nc2c1CCC2 [Compound 430, 2-[methyl(2-{4-[2-(morpholin-4-yl)ethoxy]pyridin-2-yl}-5H,6H,7H-cyclopenta[d]pyrimidin-4-yl)amino]-N-(propan-2-yl)acetamide]
5 | 7.9 | CN(CC(=O)NCC(F)(F)F)c1nc(-c2cc(OCC(C)(C)O)ccn2)nc2c1CCC2 [Compound 479, 2-({2-[4-(2-hydroxy-2-methylpropoxy)pyridin-2-yl]-5H,6H,7H-cyclopenta[d]pyrimidin-4-yl}(methyl)amino)-N-(2,2,2-trifluoroethyl)acetamide]
6 | 7.7 | CN(CC(=O)NC(C)(C)C)c1nc(-c2cc(OCC(O)CO)ccn2)nc2c1CCC2 (stereo in doubt) [Compound 415, N-tert-butyl-2-[(2-{4-[(2R)-2,3-dihydroxypropoxy]pyridin-2-yl}-5H,6H,7H-cyclopenta[d]pyrimidin-4-yl)(methyl)amino]acetamidede]
7 | 8.1 | C[C@H](CO)Oc1ccnc(-c2nc3c(c(N(C)CC(=O)NC(C)(C)C)n2)CCC3)c1 [Compound 384, N-tert-butyl-2-{[2-(4-{[(2R)-1-hydroxypropan-2-yl]oxy}pyridin-2-yl)-5H,6H,7H-cyclopenta[d]pyrimidin-4-yl](methyl)amino}acetamide]
8 | 7.2 | CC(C)NC(=O)CN(C)c1nc(-c2cc(OCC(C)(C)O)ccn2)nc2c1CC(C)(C)C2 [Compound 449, 2-({2-[4-(2-hydroxy-2-methylpropoxy)pyridin-2-yl]-6,6-dimethyl-5H,6H,7H-cyclopenta[d]pyrimidin-4-yl}(methyl)amino)-N-(propan-2-yl)acetamide]
9 | 7.8 | CC(C)NC(=O)CN(C)c1nc(-c2cc(OCC(C)(C)O)ccn2)nc2c1C(C)(C)CC2 [Compound 439, 2-({2-[4-(2-hydroxy-2-methylpropoxy)pyridin-2-yl]-5,5-dimethyl-5H,6H,7H-cyclopenta[d]pyrimidin-4-yl}(methyl)amino)-N-(propan-2-yl)acetamide]
10 | 7.2 | CN(CC(=O)NC1COC1)c1nc(-c2cc(OCCO)ccn2)nc2c1CCC2 [Compound 374, 2-({2-[4-(2-hydroxyethoxy)pyridin-2-yl]-5H,6H,7H-cyclopenta[d]pyrimidin-4-yl}(methyl)amino)-N-(oxetan-3-yl)acetamide]

More lines, now with the values behind:

Row | SMILES | pEC50
11 | CN(CC(=O)NC1CCCCC1)c1nc(-c2ccccn2)nc2c1CCC2 [Compound 78, N-cyclohexyl-2-{methyl[2-(pyridin-2-yl)-5H,6H,7H-cyclopenta[d]pyrimidin-4-yl]amino}acetamide] | 7.4
12 | CN(CC(=O)NC(C)(C)C)c1nc(-c2ccccn2)nc2c1CCC2 [Compound 89, N-tert-butyl-2-{methyl[2-(pyridin-2-yl)-5H,6H,7H-cyclopenta[d]pyrimidin-4-yl]amino}acetamide] | 7.3
13 | CN(CC(=O)Nc1ccn(C)n1)c1nc(-c2cc3ccccc3cn2)nc2c1CCC2 [Compound 237, 2-{[2-(isoquinolin-3-yl)-5H,6H,7H-cyclopenta[d]pyrimidin-4-yl](methyl)amino}-N-(1-methyl-1H-pyrazol-3-yl)acetamide] | 7.1
14 | CN(CC(=O)Nc1cnn(C)c1)c1nc(-c2cc(OCCO)ccn2)nc2c1CCC2 [Compound 296, 2-({2-[4-(2-hydroxyethoxy)pyridin-2-yl]-5H,6H,7H-cyclopenta[d]pyrimidin-4-yl}(methyl)amino)-N-(1-methyl-1H-pyrazol-4-yl)acetamide] | 7.6
15 | COc1ccnc(-c2nc3c(c(N(C)CC(=O)N[C@@H]4CCC[C@@H]4O)n2)CCC3)c1 (relative stereo) [Compound 170, N-[(1R,2S)-2-hydroxycyclopentyl]-2-{[2-(4-methoxypyridin-2-yl)-5H,6H,7H-cyclopenta[d]pyrimidin-4-yl](methyl)amino}acetamide] | 7.8
16 | COCCN(C)c1nc(-c2ccccn2)nc2c1CCC2 [Compound 84, N-(2-methoxyethyl)-N-methyl-2-(pyridin-2-yl)-5H,6H,7H-cyclopenta[d]pyrimidin-4-amine] | 6.6
17 | CN(CC(=O)NC(C)(C)C)c1nc(-c2nccn2C)nc2c1CCC2 [Compound 162, N-tert-butyl-2-{methyl[2-(1-methyl-1H-imidazol-2-yl)-5H,6H,7H-cyclopenta[d]pyrimidin-4-yl]amino}acetamide] | 5.7
18 | CN(CC(=O)NC1(C(F)(F)F)CC1)c1nc(-c2cc(OC3COC3)ccn2)nc2c1CCC2 [Compound 338, 2-[methyl({2-[4-(oxetan-3-yloxy)pyridin-2-yl]-5H,6H,7H-cyclopenta[d]pyrimidin-4-yl})amino]-N-[1-(trifluoromethyl)cyclopropyl]aceta-mide] | 7.1
19 | Cc1ccc(NC(=O)CN(C)c2nc(-c3cc(OCCO)ccn3)nc3c2CCC3)nn1 [Compound 286, 2-({2-[4-(2-hydroxyethoxy)pyridin-2-yl]-5H,6H,7H-cyclopenta[d]pyrimidin-4-yl}(methyl)amino)-N-(6-methylpyridazin-3-yl)acetamide] | 7.5
20 | COc1ccc(NC(=O)CN(C)c2nc(-c3cn(C)cn3)nc3c2CCC3)nc1 [Compound 190, N-(5-methoxypyridin-2-yl)-2-{methyl[2-(1-methyl-1H-imidazol-4-yl)-5H,6H,7H-cyclopenta[d]pyrimidin-4-yl]amino}acetamide] | 7.8
21 | CN(CC(=O)Nc1cn(C)cn1)c1nc(-c2cc3ccccc3cn2)nc2c1CCC2 [Compound 236, 2-{[2-(isoquinolin-3-yl)-5H,6H,7H-cyclopenta[d]pyrimidin-4-yl](methyl)amino}-N-(1-methyl-1H-imidazol-4-yl)acetamide] | 7.4
22 | COc1ccnc(-c2nc3c(c(N(C)[C@H]4CCN(c5ccccc5)C4=O)n2)CCC3)c1 [Compound 205, (3S)-3-{[2-(4-methoxypyridin-2-yl)-5H,6H,7H-cyclopenta[d]pyrimidin-4-yl](methyl)amino}-1-phenylpyrrolidin-2-one] | 7.5
23 | CC[C@@](C)(O)COc1ccnc(-c2nc3c(c(N(C)CC(=O)NC(C)(C)C)n2)CCC3)c1 [Compound 445, N-tert-butyl-2-[(2-{4-[(2R)-2-hydroxy-2-methylbutoxy]pyridin-2-yl}-5H,6H,7H-cyclopenta[d]pyrimidin-4-yl)(methyl)amino]acetamide] | 8.3
24 | COc1cnc(NC(=O)CN(C)c2nc(-c3cc(OCCO)ccn3)nc3c2CCC3)cn1 [Compound 290, 2-({2-[4-(2-hydroxyethoxy)pyridin-2-yl]-5H,6H,7H-cyclopenta[d]pyrimidin-4-yl}(methyl)amino)-N-(5-methoxypyrazin-2-yl)acetamide] | 7.6
25 | CC(C(=O)NC(C)(C)C)N(C)c1nc(-c2ccccn2)nc2c1CCC2 (stereo not drawn) [Compound 90, N-tert-butyl-2-{methyl[2-(pyridin-2-yl)-5H,6H,7H-cyclopenta[d]pyrimidin-4-yl]amino}propanamide] | 7.4
26 | CN(CC(=O)NC(C)(C)CO)c1nc(-c2cn(CCCO)cn2)nc2c1CCC2 [Compound 275, N-(1-hydroxy-2-methylpropan-2-yl)-2-({2-[1-(3-hydroxypropyl)-1H-imidazol-4-yl]-5H,6H,7H-cyclopenta[d]pyrimidin-4-yl}(methyl)amino)acetamide] | 7
27 | COc1ccnc(-c2nc3c(c(N(C)CC(=O)Nc4cncnc4)n2)CCC3)c1 [Compound 178] | 7.2
28 | CCc1ccnc(-c2nc3c(c(N(C)CC(=O)NC(C)(C)C)n2)CCC3)c1 [Compound 100, N-tert-butyl-2-{[2-(4-ethylpyridin-2-yl)-5H,6H,7H-cyclopenta[d]pyrimidin-4-yl](methyl)amino}acetamide] | 7.5
29 | Cc1cc(-c2nc3c(c(N(C)CC(=O)NC(C)(C)C)n2)CCC3)ncc1F [Compound 303, N-tert-butyl-2-{[2-(5-fluoro-4-methylpyridin-2-yl)-5H,6H,7H-cyclopenta[d]pyrimidin-4-yl](methyl)amino}acetamide] | 6.4
30 | COc1cccc(NC(=O)CN(C)c2nc(-c3cn(C)cn3)nc3c2CCC3)c1 [Compound 272, N-(3-methoxyphenyl)-2-{methyl[2-(1-methyl-1H-imidazol-4-yl)-5H,6H,7H-cyclopenta[d]pyrimidin-4-yl]amino}acetamide] | 7.8
